What was measured:
B lymphocyte = assay: Lymphocyte proliferation test, B lymphocyte proliferation response induced by LPS ([3H]-thymidine); type: cell-based, mouse; conditions: mouse spleen cells, LPS, 48 hours; read-out: Inhibiting activity of B lymphocyte proliferation response induced by LPS IC50
Experimental: 3. After incubated in 5% CO2 incubator at 37° C. for 48 hours, 0.5 μCi [^3H]-thymidine (25 μL/well) was added into each well 7-8 hours before the termination of the incubation. 4.

T lymphocyte = assay: Lymphocyte proliferation test, T lymphocyte proliferation response induced by ConA ([3H]-thymidine); type: cell-based, mouse; conditions: mouse spleen cells, ConA, 48 hours; read-out: Inhibiting activity of T lymphocyte proliferation response induced by ConA IC50
Experimental: B. Lymphocyte Proliferation Test […] […] 3. After incubated in 5% CO2 incubator at 37° C. for 48 hours, 0.5 μCi [^3H]-thymidine (25 μL/well) was added into each well 7-8 hours before the termination of the incubation. 4.

[1] = system: BALB/c mouse spleen cells; assay: Lymphocytotoxicity test (MTT); type: cell-based; conditions: mouse spleen cells, 48 hours, read-out: Lymphocytotoxicity CC50
Experimental: A. Lymphocytotoxicity Test
1. BALB/c mice were killed by cervical dislocation, and their spleens were removed aseptically. A single spleen cell suspension was prepared and cell debris and clumps were removed.
2. 80 μL cell suspension, 40 μL testing sample, 40 μL medium containing 10% FBS were added into 96 well plate; for the control group, 80 μL medium was added the total volume was 160 μL, and blank control group was set.
3. After incubated in 5% CO2 incubator at 37° C. for 48 hours, 16 μL MTT (5 mg/mL) reagent was added into each well 6-7 hours before the termination of the incubation.

## CC(C(=O)O)c1ccc(OC2OC3OC4(C)CCC5C(C)CCC(C2C)C35OO4)cc1 (stereo not drawn) [compound 22, 2-[4-(12β-artemisininoxy)phenyl] propanoic acid]
B lymphocyte
  IC50: 8.6 µM
T lymphocyte
  IC50: 3.6 µM
[1]
  CC50: 59.6 µM

## COc1ccccc1OC(=O)C(C)c1ccc(OC2OC3OC4(C)CCC5C(C)CCC(C2C)C35OO4)cc1 (stereo not drawn) [compound 23, o-methoxy-phenyl 2-[4-(12β-artemisininoxy)phenyl] propionate]
B lymphocyte
  IC50: 0.0947 µM
T lymphocyte
  IC50: 0.527 µM
[1]
  CC50: 5.33 µM

## CCOC(=O)C(C)Oc1ccc(OC2OC3OC4(C)CCC5C(C)CCC(C2C)C35OO4)cc1 (stereo not drawn) [compound 24, ethyl 2-[4-(12β-artemisininoxy)phenoxy] propionate]
B lymphocyte
  IC50: 0.85 µM
T lymphocyte
  IC50: 0.26 µM
[1]
  CC50: 17.6 µM

## CC(Oc1ccc(OC2OC3OC4(C)CCC5C(C)CCC(C2C)C35OO4)cc1)C(=O)O (stereo not drawn) [compound 25, 2-[4-(12β-artemisininoxy)phenoxy] propanoic acid]
B lymphocyte
  IC50: 0.86 µM
T lymphocyte
  IC50: 7.27 µM
[1]
  CC50: 24.3 µM

## COc1ccccc1OC(=O)C(C)Oc1ccc(OC2OC3OC4(C)CCC5C(C)CCC(C2C)C35OO4)cc1 (stereo not drawn) [compound 26, o-methoxy-phenyl 2-[4-(12β-artemisininoxy)phenoxy] propionate]
B lymphocyte
  IC50: 0.27 µM
T lymphocyte
  IC50: 2.33 µM
[1]
  CC50: 39.1 µM

## COc1ccccc1OC(=O)C(C)Oc1cccc(OC2OC3OC4(C)CCC5C(C)CCC(C2C)C35OO4)c1 (stereo not drawn) [compound 27, o-methoxy-phenyl 2-[3-(12β-Artemisininoxy)phenoxy] propionate]
B lymphocyte
  IC50: 0.57 µM
T lymphocyte
  IC50: 4.12 µM
[1]
  CC50: 2.99 µM

## CCOC(=O)C(C)Oc1cccc(OC2OC3OC4(C)CCC5C(C)CCC(C2C)C35OO4)c1 (stereo not drawn) [compound 28, ethyl 2-[3-(12α-artemisininoxy)phenoxy] propionate]
B lymphocyte
  IC50: 0.56 µM
T lymphocyte
  IC50: 3.59 µM
[1]
  CC50: 2.99 µM

## CC(Oc1cccc(OC2OC3OC4(C)CCC5C(C)CCC(C2C)C35OO4)c1)C(=O)O (stereo not drawn) [compound 29, 2-[3-(12α-artemisininoxy)phenoxy] propanoic acid]
B lymphocyte
  IC50: 0.74 µM
T lymphocyte
  IC50: 8.6 µM
[1]
  CC50: 35.1 µM

## COc1ccccc1OC(=O)C(C)Oc1cccc(OC2OC3OC4(C)CCC5C(C)CCC(C2C)C35OO4)c1 (stereo not drawn) [compound 30, o-methoxy-phenyl 2-[3-(12α-artemisininoxy)phenoxy] propionate]
B lymphocyte
  IC50: 0.82 µM
T lymphocyte
  IC50: 5.73 µM
[1]
  CC50: 8.23 µM

From patent publication US7910750B2, “Artemisinin (qinghaosu) derivatives, their preparation methods and their use, and pharmaceutical compositions containing the same” (Shanghai Institute of Materia Medica, Chinese Academy of …, priority 2005, dated 2011)
